Tested on: rat prostate
Experiment: Intraprostatic infusion in rats, prostate volume and histology at 72 hours
Type: in vivo, Sprague-Dawley rats
Conditions: 1 mg/mL in PBS pH 7.4 (1.0 mg/kg)
Method: Male Sprague-Dawley rats (300 gram weight range) were anesthetized with ether and given NTP[122] peptide #1 by intraprostatic infusion after open surgical visualization of the prostate. The injections consisted of 300 μl of NTP[122] peptide #1, 1 mg/mL in PBS pH 7.4. (1.0 mg/kg) (n=8), control injections of PBS alone (n=6), and controls with no injection (n=2). Rats were painlessly sacrificed after 72 hours. Prostate glands were dissected, fixed in 10%, buffered formalin for 24 hours, embedded in paraffin, sectioned, and stained with H & E. For each animal the entire prostate gland was embedded and sectioned. All stained sections were examined histologically and measured. For each prostate at least 4 histological sections were examined, and for each histological section two cross-sectional diameters (D) at 90° from each other were measured (total of ≧8 measurements per prostate). […]
Male Sprague-Dawley rats (300 gram weight range) were anesthetized with ether and given NTP[112] peptide #1 by intraprostatic infusion after open surgical visualization of the prostate. […] All stained sections were examined histologically and measured. For each prostate at least 4 histological sections were examined, and for each histological section two cross-sectional diameters (D) at 90° from each other were measured (total of ≧8 measurements per prostate). […]

Row | Sequence | prostate histology (H & E)
1 | IDQQVLSRIKLEIKRCL (listed as Homo sapiens) [NTP[122] peptide #1] | extensive loss of glandular epithelium, flattening and atrophy
2 | MAQSRLTATSASRVQ (listed as Homo sapiens) [NTP[112] peptide #1] | significant cell loss and atrophy

Source: patent US7745572B2, “Peptides effective in the treatment of tumors and other conditions requiring the removal or destruction of cells” (Qualcomm Incorporated, priority 2001, dated 2010)
